Measurements as given in ChEMBL document CHEMBL5291721, “A preclinical secondary pharmacology resource illuminates target-adverse drug reaction associations of marketed drugs” (Nat Commun, 2023).

Assays:
[1] = target: Sodium-dependent serotonin transporter (Homo sapiens, UniProt P31645)
[2] = target: T1, Muscarinic acetylcholine receptor M1 (Homo sapiens, UniProt P11229); format: functional, cell-based
T1 sequence (P11229 whole entry): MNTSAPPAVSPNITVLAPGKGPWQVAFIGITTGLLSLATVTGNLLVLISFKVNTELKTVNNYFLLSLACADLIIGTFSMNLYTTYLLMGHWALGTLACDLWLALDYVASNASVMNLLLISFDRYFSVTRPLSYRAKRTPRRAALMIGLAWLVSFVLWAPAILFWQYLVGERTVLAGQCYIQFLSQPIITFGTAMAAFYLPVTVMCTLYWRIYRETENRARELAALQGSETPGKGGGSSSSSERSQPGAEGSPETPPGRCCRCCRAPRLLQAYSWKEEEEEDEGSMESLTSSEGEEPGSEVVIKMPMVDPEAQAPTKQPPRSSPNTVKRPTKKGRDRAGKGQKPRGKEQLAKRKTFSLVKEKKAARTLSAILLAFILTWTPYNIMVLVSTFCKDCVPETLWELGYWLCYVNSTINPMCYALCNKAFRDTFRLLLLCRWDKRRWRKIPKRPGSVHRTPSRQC

[3] = target: T2, Gamma-aminobutyric acid receptor subunit alpha-1 (Rattus norvegicus, UniProt P62813); format: functional
T2 sequence (P62813 whole entry): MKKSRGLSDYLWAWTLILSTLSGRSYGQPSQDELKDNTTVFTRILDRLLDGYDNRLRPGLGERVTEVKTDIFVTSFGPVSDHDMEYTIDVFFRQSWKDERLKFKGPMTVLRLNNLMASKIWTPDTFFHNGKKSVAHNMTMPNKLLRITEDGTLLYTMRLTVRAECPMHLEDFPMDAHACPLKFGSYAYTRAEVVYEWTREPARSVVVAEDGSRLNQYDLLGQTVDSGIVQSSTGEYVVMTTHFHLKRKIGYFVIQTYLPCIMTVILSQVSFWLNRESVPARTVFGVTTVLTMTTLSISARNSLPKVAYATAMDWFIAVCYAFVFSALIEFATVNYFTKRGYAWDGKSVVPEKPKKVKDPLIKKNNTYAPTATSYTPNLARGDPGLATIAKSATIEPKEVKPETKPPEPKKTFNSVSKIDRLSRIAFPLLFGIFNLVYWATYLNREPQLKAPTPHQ

[4] = target: T3, Cholecystokinin receptor type A (Homo sapiens, UniProt P32238)
T3 sequence (P32238 whole entry): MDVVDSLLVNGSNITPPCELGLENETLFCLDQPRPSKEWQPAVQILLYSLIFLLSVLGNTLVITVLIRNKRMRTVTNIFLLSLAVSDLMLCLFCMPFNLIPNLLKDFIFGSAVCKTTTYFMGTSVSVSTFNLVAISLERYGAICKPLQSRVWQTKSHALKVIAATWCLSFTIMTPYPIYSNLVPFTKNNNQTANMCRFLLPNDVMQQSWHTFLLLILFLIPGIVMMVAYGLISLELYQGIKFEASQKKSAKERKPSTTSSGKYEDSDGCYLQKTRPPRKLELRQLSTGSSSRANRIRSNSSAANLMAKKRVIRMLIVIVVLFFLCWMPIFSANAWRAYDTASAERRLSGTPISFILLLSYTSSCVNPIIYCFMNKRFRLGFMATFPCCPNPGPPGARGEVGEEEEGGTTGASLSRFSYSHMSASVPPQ

[5] = target: T4, Thromboxane A2 receptor (Homo sapiens, UniProt P21731)
T4 sequence (P21731 whole entry): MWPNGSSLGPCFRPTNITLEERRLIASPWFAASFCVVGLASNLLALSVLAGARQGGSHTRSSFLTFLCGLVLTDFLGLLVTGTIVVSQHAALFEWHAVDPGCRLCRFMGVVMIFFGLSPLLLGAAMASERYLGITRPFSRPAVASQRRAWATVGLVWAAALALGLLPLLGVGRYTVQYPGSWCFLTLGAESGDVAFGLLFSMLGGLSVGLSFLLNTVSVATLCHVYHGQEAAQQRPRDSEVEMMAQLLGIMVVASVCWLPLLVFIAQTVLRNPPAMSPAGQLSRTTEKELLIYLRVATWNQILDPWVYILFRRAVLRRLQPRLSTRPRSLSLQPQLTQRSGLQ

[6] = target: T5, Adenosine receptor A3 (Homo sapiens, UniProt P0DMS8)
T5 sequence (P0DMS8 whole entry): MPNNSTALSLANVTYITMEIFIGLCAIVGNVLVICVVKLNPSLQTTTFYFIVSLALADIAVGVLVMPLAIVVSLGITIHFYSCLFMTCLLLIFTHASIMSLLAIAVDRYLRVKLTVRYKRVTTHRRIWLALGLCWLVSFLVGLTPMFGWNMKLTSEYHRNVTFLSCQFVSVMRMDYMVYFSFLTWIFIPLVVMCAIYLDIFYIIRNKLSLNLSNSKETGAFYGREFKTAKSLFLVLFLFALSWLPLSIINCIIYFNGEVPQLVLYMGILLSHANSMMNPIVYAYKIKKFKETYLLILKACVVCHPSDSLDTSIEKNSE

[7] = target: T2, Gamma-aminobutyric acid receptor subunit alpha-1
[8] = target: Beta-1 adrenergic receptor (Homo sapiens, UniProt P08588); format: functional
Sequence of Beta-1 adrenergic receptor (P08588 whole entry): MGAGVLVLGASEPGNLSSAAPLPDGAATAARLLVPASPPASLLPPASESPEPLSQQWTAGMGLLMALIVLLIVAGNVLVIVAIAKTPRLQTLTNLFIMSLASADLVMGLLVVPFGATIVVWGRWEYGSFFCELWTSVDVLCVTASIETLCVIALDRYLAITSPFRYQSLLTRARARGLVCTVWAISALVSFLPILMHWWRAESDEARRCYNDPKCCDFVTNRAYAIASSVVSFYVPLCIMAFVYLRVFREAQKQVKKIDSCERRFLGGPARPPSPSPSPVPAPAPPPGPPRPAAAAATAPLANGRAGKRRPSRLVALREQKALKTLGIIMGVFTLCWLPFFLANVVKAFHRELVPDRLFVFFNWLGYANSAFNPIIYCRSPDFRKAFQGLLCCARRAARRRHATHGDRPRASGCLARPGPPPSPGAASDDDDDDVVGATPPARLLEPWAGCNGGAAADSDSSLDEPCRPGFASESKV

[9] = target: T6, Alpha-2C adrenergic receptor (Homo sapiens, UniProt P18825); format: functional
T6 sequence (P18825 whole entry): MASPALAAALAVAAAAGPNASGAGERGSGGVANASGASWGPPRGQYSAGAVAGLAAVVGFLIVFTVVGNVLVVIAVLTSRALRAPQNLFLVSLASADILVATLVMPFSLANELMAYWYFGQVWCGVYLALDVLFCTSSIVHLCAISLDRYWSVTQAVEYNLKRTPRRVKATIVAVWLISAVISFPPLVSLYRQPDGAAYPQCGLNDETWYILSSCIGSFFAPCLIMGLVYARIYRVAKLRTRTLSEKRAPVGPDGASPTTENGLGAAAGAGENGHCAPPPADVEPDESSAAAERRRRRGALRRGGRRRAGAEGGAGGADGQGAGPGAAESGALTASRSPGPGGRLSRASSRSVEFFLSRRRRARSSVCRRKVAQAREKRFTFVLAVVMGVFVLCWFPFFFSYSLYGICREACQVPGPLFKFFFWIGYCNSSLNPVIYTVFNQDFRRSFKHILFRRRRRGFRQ

[10] = target: Mu-type opioid receptor (Homo sapiens, UniProt P35372)
Sequence of Mu-type opioid receptor (P35372 whole entry): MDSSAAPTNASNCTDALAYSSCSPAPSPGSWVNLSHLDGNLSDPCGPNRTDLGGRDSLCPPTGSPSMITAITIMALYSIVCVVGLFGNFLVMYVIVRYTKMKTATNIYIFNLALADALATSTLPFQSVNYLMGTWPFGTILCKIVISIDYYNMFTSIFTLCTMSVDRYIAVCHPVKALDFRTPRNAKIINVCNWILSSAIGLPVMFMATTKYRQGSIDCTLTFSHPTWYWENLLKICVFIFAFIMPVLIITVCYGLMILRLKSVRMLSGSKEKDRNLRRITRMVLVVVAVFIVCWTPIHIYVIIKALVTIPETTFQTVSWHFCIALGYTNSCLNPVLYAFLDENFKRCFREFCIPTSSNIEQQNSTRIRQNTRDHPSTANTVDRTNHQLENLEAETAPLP

[11] = target: T7, Alpha-2A adrenergic receptor (Homo sapiens, UniProt P08913); format: functional, cell-based
T7 sequence (P08913 whole entry): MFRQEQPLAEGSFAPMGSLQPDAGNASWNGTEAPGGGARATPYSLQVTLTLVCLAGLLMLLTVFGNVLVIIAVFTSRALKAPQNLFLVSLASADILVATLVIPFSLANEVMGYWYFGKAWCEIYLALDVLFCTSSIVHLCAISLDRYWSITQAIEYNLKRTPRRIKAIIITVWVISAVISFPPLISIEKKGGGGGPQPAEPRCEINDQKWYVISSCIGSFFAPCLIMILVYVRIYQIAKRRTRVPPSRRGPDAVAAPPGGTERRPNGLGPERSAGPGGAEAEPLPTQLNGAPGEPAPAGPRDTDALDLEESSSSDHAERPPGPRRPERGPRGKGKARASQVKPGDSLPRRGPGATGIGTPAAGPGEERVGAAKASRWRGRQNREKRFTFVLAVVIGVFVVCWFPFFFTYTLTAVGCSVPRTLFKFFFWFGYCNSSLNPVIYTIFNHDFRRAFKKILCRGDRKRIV

[12] = target: 5-hydroxytryptamine receptor 2B (Homo sapiens, UniProt P41595); format: functional, cell-based
Sequence of 5-hydroxytryptamine receptor 2B (P41595 whole entry): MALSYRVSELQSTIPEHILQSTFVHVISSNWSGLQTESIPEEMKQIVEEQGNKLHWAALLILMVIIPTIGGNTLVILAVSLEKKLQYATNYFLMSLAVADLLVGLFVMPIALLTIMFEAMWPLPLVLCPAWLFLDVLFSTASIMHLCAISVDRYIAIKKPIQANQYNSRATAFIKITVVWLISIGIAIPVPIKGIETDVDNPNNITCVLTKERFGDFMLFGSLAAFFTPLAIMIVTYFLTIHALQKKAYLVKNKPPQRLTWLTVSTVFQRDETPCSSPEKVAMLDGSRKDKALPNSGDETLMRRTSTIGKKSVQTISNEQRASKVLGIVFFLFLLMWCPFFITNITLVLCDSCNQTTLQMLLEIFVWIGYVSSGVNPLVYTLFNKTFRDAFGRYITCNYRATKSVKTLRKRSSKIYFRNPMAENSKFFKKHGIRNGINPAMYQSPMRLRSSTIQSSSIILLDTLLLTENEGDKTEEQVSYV

[13] = target: Cannabinoid receptor 1 (Homo sapiens, UniProt P21554); format: functional, cell-based
Sequence of Cannabinoid receptor 1 (P21554 whole entry): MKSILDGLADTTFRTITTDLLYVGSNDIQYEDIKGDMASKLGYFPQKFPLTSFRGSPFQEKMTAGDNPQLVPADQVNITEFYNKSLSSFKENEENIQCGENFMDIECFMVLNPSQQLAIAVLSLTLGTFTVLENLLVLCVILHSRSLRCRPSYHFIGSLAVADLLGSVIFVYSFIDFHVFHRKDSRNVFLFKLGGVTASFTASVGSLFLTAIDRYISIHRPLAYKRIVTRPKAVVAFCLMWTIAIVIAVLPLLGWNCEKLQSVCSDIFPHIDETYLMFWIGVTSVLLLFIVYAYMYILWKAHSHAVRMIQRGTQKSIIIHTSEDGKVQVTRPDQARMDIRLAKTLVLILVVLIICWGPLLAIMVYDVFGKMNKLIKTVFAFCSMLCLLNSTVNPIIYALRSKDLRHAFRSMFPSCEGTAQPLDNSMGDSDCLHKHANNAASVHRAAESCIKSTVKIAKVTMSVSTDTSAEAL
Also: assay procedure not described here.

Sequence of Sodium-dependent serotonin transporter (P31645 whole entry): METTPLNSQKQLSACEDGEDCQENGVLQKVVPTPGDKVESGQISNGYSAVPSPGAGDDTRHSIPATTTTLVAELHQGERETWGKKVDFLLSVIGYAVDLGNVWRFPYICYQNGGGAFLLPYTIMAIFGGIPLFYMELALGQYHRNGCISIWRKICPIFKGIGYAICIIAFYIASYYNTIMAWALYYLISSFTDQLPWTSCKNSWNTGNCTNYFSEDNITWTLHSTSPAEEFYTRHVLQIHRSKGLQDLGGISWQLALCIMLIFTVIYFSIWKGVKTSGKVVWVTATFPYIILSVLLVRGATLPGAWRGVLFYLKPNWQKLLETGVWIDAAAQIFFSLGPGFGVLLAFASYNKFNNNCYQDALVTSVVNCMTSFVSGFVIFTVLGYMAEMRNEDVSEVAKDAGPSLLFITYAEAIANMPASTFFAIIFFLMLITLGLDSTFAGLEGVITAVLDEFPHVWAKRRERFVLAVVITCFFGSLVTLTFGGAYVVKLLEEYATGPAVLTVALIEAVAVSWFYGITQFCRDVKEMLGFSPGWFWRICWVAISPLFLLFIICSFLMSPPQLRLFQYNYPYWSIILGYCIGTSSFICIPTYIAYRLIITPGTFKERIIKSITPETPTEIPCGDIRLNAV

SMILES	AC50 [1] [µM]	AC50 [2] [µM]	also measured
O=C(O)c1cc(/N=N/c2ccc(O)c(C(=O)O)c2)ccc1O [OLSALAZINE]	> 30	> 30	
FC(F)(F)c1ccc(CNc2ccc(Cc3c[nH]c4ncc(Cl)cc34)cn2)cn1 [PEXIDARTINIB]	8	0.389	
CC(C)C[C@H](NC(=O)CNC(=O)c1cc(Cl)ccc1Cl)B(O)O [IXAZOMIB]	> 30	> 30	
CC(CN1CC(=O)NC(=O)C1)N1CC(=O)NC(=O)C1 (stereo not given) [RAZOXANE]	> 30	> 30	
O=C1/C(=C2\Nc3ccc(S(=O)(=O)O)cc3C2=O)Nc2ccc(S(=O)(=O)O)cc21 [INDIGOTINDISULFONATE]	> 30	> 30	
OC[C@H]1O[C@@H](c2ccc(F)c(Cc3cc4ccccc4s3)c2)[C@H](O)[C@@H](O)[C@@H]1O [IPRAGLIFLOZIN]	> 30	19.8	
CCn1cc(C(=O)O)c(=O)c2cc3c(cc21)OCO3 [OXOLINIC ACID]	> 30	> 30	
CC[C@H](c1ccc(O)cc1)[C@@H](CC)c1ccc(O)cc1 [HEXESTROL]	> 30	> 3	
CCOC(=O)C1=C[C@@H](OC(CC)CC)[C@H](NC(C)=O)[C@@H](N)C1 [OSELTAMIVIR]	> 30	> 30	
CN1CCC(=C2c3ccccc3Sc3ccccc32)CC1 [PIMETHIXENE]	18.3	0.0216	
CCCN(CCC)C(=O)Cc1c(-c2ccc(Cl)cc2)nc2ccc(Cl)cn12 [ALPIDEM]		> 10	AC50 [3]: 0.0431 µM; AC50 [4]: > 30 µM; AC50 [5]: > 30 µM; AC50 [6]: 11.5 µM; AC50 [7]: > 30 µM; AC50 [8]: > 30 µM; AC50 [9]: > 30 µM; AC50 [10]: > 10 µM; AC50 [11]: > 30 µM; AC50 [12]: > 30 µM
CCc1nc(C(N)=O)c(Nc2ccc(N3CCC(N4CCN(C)CC4)CC3)c(OC)c2)nc1NC1CCOCC1 [GILTERITINIB]	> 30	> 0.3	
CC[C@H]1OC(=O)[C@H](C)C(=O)[C@H](C)[C@@H](O[C@@H]2O[C@H](C)C[C@H](N(C)C)[C@H]2O)[C@](C)(OC)C[C@@H](C)C(=O)[C@H](C)[C@H]2N(CCCCn3cnc(-c4cccnc4)c3)C(=O)O[C@]12C [TELITHROMYCIN]	> 30	> 30	
CN1CCCCC1CCN1c2ccccc2Sc2ccc([S+](C)[O-])cc21 (stereo not given) [MESORIDAZINE]	> 30	> 30	
N[C@@H](CO)C(=O)O [SERINE]	> 30	> 30	
OC[C@H]1O[C@@H](c2ccc(Cl)c(Cc3ccc(O[C@H]4CCOC4)cc3)c2)[C@H](O)[C@@H](O)[C@@H]1O [EMPAGLIFLOZIN]	> 30	> 30	

SMILES	AC50 [1] [µM]	AC50 [2] [µM]	also measured
CC(=O)Oc1cc(C(F)(F)F)ccc1C(=O)O [TRIFLUSAL]	> 30	> 30	
[H]/N=C(\N/C(=N/[H])Nc1ccc(Cl)cc1)NC(C)C [PROGUANIL]	22.8	> 30	
C[C@@H]1C[C@H]2[C@@H]3CCC4=CC(=O)C=C[C@]4(C)[C@@]3(Cl)[C@@H](O)C[C@]2(C)[C@@]1(OC(=O)c1ccco1)C(=O)CCl [MOMETASONE FUROATE]	> 30	> 30	
CNC(=O)Oc1cccc2ccccc12 [CARBARIL]	> 30	> 30	
N#Cc1ccc2c(c1)N(CCCN1CCC(O)CC1)c1ccccc1S2 [PERICIAZINE]		5.58	
N[C@@H](CS)C(=O)O [CYSTEINE]	> 30	> 30	
COc1cc2nccc(Oc3ccc(NC(=O)C4(C(=O)Nc5ccc(F)cc5)CC4)cc3)c2cc1OC [CABOZANTINIB]		2.72	AC50 [3]: > 30 µM; AC50 [4]: > 30 µM; AC50 [13]: > 30 µM; AC50 [6]: 3.7 µM; AC50 [8]: > 30 µM; AC50 [9]: 26 µM; AC50 [10]: > 30 µM; AC50 [11]: > 30 µM; AC50 [12]: 5.8 µM
C/C=C/C/C=C/CCC(=O)[C@H]1O[C@H]1C(N)=O [CERULENIN]	> 30	> 30	
Cc1ccccc1C(=O)Nc1ccc(C(=O)N2CCCC(N(C)C)c3ccccc32)cc1 (stereo not given) [MOZAVAPTAN]	1.26	23.7	
CC(C)OC(=O)CCC/C=C\C[C@@H]1[C@@H](/C=C/C(F)(F)COc2ccccc2)[C@H](O)C[C@@H]1O [TAFLUPROST]	> 30	> 30	
C=CCN1CC[C@]23CCCC[C@H]2[C@H]1Cc1ccc(O)cc13 [LEVALLORPHAN]	> 30	> 30	
CC(C)(O)CNc1nc(Nc2ccnc(C(F)(F)F)c2)nc(-c2cccc(C(F)(F)F)n2)n1 [ENASIDENIB]	> 30	23.9	
Cc1onc(-c2ccccc2)c1C(=O)N[C@@H]1C(=O)N2[C@@H]1SC(C)(C)[C@@H]2C(=O)O [OXACILLIN]	> 30	> 30	
COc1c2ccoc2cc2oc(=O)ccc12 [BERGAPTEN]	> 30	> 30	
CC[C@H](C)C[C@H](C)CCCCCCCCC(=O)N[C@H]1C[C@@H](O)[C@@H](NCCN)NC(=O)[C@@H]2[C@@H](O)CCN2C(=O)[C@H]([C@H](O)CCN)NC(=O)[C@H]([C@H](O)[C@@H](O)c2ccc(O)cc2)NC(=O)[C@@H]2C[C@@H](O)CN2C(=O)[C@H]([C@@H](C)O)NC1=O [CASPOFUNGIN]	> 30	15.7	
Nc1ccc(C(=O)Oc2ccccc2)c(O)c1 [PHENYL AMINOSALICYLATE]	> 30	17.1	
